Each structure is given as a SMILES string. Read-outs that look alike come from different tables or passages of the source.

One assay has as its target T1, Trypsin (Bos taurus, UniProt P00760).
T1 sequence (P00760 24-246): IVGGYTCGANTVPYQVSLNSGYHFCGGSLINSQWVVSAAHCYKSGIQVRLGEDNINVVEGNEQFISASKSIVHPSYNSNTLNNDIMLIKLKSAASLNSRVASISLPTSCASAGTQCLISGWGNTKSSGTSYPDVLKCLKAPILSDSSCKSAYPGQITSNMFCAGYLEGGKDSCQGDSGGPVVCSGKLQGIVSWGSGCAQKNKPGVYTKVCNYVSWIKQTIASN
Briefly: Anti-trypsin activity (hydrolysis of TAME). Type of assay: biochemical. The following applies: for IC50: molar concentration inhibiting 50% of TAME hydrolysis, read-out: Trypsin ID50. How it is done: (§1) The anti-trypsin, anti-plasmin, anti-kallikrein and anti-thrombin activities were determined according to the method of Muramatsu et al. [M. Muramatsu, T. Onishi, S. Makino, Y. Hayashi and S. Fujii, J. of Biochem., 58, 214 (1965)]. […] The compound No. corresponds to the compound number shown in Examples.

A further assay addresses Plasmin (Homo sapiens, UniProt P00747). As to the kind of experiment: Anti-plasmin activity (hydrolysis of TAME). The assay is classed as biochemical. Conditions: for IC50: molar concentration inhibiting 50% of TAME hydrolysis, read-out: Plasmin ID50; for inhibition at 10 µM: at 1×10^-5 M, read-out: Plasmin percentage inhibition. How it is done: as §1
Another assay deals with Thrombin (Homo sapiens, UniProt P00734). Briefly: biochemical. The following applies: for IC50: molar concentration inhibiting 50% of TAME hydrolysis, read-out: Thrombin ID50; for inhibition at 10 µM: at 1×10^-5 M, read-out: Thrombin percentage inhibition. The protocol:
The anti-trypsin, anti-plasmin, anti-kallikrein and anti-thrombin activities were determined according to the method of Muramatsu et al. [M. Muramatsu, T. Onishi, S. Makino, Y. Hayashi and S. Fujii, J. of Biochem., 58, 214 (1965)]. The data summarized in Table 1 are expressed in terms of molar concentration (ID50) of the test compound which inhibits 50% of the activity of each enzyme to hydrolyze TAME (tosylalginine methyl ester). The compound No. corresponds to the compound number shown in Examples.

A further assay addresses T2, C1r (Homo sapiens, UniProt P00736).
T2 sequence (P00736 464-705 limits assumed): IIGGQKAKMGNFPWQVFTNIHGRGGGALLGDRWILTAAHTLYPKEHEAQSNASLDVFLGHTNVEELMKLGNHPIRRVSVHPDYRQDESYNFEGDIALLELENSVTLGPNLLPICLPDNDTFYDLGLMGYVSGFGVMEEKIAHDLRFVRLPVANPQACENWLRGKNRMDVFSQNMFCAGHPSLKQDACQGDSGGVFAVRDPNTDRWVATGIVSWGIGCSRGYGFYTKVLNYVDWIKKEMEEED
T2 sequence (P00736 18-463 partner limits assumed): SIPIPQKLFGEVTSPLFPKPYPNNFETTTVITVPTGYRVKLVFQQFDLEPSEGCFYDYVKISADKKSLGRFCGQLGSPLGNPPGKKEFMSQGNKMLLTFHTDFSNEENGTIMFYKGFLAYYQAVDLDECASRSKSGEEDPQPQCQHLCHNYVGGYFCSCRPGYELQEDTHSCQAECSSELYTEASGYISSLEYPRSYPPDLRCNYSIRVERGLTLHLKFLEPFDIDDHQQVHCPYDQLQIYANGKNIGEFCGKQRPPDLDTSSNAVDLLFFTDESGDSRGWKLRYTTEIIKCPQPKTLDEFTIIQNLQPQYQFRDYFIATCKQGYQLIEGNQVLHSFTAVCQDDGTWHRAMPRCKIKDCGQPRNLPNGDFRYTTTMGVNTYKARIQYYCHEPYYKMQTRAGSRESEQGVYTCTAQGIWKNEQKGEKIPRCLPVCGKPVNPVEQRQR
Briefly: Anti-C1 esterase (C1r) activity (hydrolysis of AAME). Type of assay: biochemical. Conditions: for IC50: AAME hydrolysis, read-out: Anti-C1 activity, C1r ID50. The protocol:
The anti-Cl esterase ([…]) activity was determined according to the method of Okamura et al. [K. Okamura, M. Muramatsu and S. Fujii, Biochem. Biophys.

The next assay deals with T3, C1s (Homo sapiens, UniProt P09871).
T3 sequence (P09871 438-688 limits assumed): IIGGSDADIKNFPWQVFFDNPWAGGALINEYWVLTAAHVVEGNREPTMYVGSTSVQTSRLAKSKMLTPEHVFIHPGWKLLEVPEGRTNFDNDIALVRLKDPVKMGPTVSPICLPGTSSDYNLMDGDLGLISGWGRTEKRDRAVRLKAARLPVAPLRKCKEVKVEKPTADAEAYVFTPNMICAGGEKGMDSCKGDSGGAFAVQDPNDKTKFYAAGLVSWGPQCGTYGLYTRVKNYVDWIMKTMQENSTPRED
T3 sequence (P09871 16-437 partner limits assumed): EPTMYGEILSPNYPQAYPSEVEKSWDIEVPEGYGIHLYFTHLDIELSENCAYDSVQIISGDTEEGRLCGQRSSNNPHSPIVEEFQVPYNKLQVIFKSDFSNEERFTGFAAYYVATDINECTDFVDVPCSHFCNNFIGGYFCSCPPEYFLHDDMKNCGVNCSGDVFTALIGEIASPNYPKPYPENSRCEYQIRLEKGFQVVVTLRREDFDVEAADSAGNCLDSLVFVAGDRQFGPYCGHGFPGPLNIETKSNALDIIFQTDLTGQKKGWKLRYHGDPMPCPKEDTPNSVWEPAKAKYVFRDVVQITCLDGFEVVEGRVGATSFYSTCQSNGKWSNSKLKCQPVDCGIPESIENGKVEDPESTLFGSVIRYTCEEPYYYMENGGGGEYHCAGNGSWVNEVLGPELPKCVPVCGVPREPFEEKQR
Briefly: biochemical. The protocol: The anti-Cl esterase (Clr, Cls) activity was determined according to the method of Okamura et al. [K. Okamura, M. Muramatsu and S. Fujii, Biochem. Biophys. […] The figures in Table 2 have the following meanings:
Cls: Molar concentration of the test compound which inhibits 50% of the ability of Cls to hydrolyse ATEE (acetyltyrosin ethyl ester).

Assay [1] has as its system complement mediated hemolysis. Briefly: Inhibition of complement mediated hemolysis. Type of assay: cell-based.
Experimental: The principle of this method is based on the fact that hemolysis is caused by the activation of complement, when the latter is added to a complex (immune complex) of erythrocytes and the antibody thereof. The degree of hemolysis varies in proportion to the amount of complement added. Therefore, when a known amount of complement admixed with a C1 esterase inhibitor is used, the hemolysis must be suppressed in proportion to the inhibitory activity.
For the next assay, the system named is Kallikrein. As to the kind of experiment: Anti-kallikrein activity (hydrolysis of TAME). Type of assay: biochemical. The following applies: at 1×10^-5 M.
Setting [2] is: ATEE hydrolysis, read-out: Anti-C1 activity, C1s ID50.

Sequence of Plasmin (P00747 581-810 limits assumed, species assumed): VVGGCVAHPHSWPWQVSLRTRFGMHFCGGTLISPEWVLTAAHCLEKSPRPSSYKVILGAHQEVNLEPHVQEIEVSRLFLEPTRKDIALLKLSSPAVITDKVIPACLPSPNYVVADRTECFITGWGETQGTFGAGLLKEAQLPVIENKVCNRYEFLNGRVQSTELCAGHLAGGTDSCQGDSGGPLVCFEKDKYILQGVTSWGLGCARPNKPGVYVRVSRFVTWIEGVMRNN
Sequence of Plasmin (P00747 97-580 partner limits assumed, species assumed): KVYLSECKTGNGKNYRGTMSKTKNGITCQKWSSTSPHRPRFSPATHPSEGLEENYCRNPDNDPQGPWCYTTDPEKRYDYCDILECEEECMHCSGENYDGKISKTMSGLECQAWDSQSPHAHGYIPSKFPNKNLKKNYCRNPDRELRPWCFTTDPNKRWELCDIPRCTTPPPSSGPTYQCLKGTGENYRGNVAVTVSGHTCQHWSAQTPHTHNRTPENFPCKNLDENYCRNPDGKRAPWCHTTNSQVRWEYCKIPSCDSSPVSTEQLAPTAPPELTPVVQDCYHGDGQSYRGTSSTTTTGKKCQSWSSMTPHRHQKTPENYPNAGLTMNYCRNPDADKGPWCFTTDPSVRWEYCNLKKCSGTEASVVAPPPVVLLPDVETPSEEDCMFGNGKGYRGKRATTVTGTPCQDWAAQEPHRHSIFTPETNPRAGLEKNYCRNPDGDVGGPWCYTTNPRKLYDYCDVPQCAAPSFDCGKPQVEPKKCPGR

As for `Cc1cccc(C(=O)Oc2ccc3cc(C(=N)N)ccc3c2)c1` [Compound 3, 6-amidino-2-naphthyl 3-methylbenzoate], the IC50 on Trypsin amounted to 2000 nM; at Plasmin, 4000 nM; on Thrombin it was 4 µM; on C1r, 1000 nM; on C1s (setting [2]), 2000 nM. Further, the “Inhibition of complement mediated hemolysis (%)” value (“Inhibition … (%)” below) was determined as 97% in assay [1] (1 × 10^-4), 60% in assay [1] (1 × 10^-5), 8% in assay [1] (1 × 10^-6) and 11% in assay [1] (1 × 10^-7). In addition, the Kallikrein percentage inhibition in the assay on Kallikrein was 38%.
As for `COc1ccc(C(=O)Oc2ccc3cc(C(=N)N)ccc3c2)cc1` [Compound 7], the IC50 is 3000 nM at Plasmin, 3 µM at Thrombin, 100 nM on C1r and 200 nM at C1s (setting [2]). Also, the “Inhibition … (%)” value was 51% in assay [1] (1 × 10^-4), 78% in assay [1] (1 × 10^-5), 21% in assay [1] (1 × 10^-6) and 0% in assay [1] (1 × 10^-7). In addition, in the assay with Kallikrein, the Kallikrein percentage inhibition is 46%.
With `CCCCOc1ccc(C(=O)Oc2ccc3cc(C(=N)N)ccc3c2)cc1` [Compound 8], the IC50 on Trypsin came out at 40 nM; on C1r, 10000 nM; on C1s (setting [2]) it was 400 nM. Also, the results for the inhibition at 10 µM at Plasmin and at Thrombin were 17% and 29%, respectively. For the same compound, the “Inhibition … (%)” value in assay [1] (1 × 10^-4) turned out to be 46%; in assay [1] (1 × 10^-5), 18%; in assay [1] (1 × 10^-6) it was 23%. For the same compound, the Kallikrein percentage inhibition in the assay on Kallikrein was 43%.
For `N=C(N)c1ccc2cc(OC(=O)c3ccc4c(c3)OCO4)ccc2c1` [Compound 10], the IC50 at Trypsin was 200 nM; at Plasmin, 50000 nM; on Thrombin, 4 µM; at C1r it was 200 nM; at C1s (setting [2]), 200 nM. The “Inhibition … (%)” value worked out at 97% in assay [1] (1 × 10^-4), 75% in assay [1] (1 × 10^-5), 9% in assay [1] (1 × 10^-6) and 2% in assay [1] (1 × 10^-7). The compound also gave a Kallikrein percentage inhibition with Kallikrein of 31%.
As for `N=C(N)c1ccc2cc(OC(=O)c3ccc(O)cc3)ccc2c1` [Compound 11, 6-amidino-2-naphthyl 4-hydroxybenzoate], the IC50 turned out to be 300 nM on Trypsin, 7 µM at Thrombin, 100 nM on C1r and 200 nM on C1s (setting [2]). Moreover, the inhibition at 10 µM at Plasmin stood at 36%. The “Inhibition … (%)” value in assay [1] (1 × 10^-4) is reported as 96%; in assay [1] (1 × 10^-5), 56%; in assay [1] (1 × 10^-6), 6%; in assay [1] (1 × 10^-7), 13%. This compound also registered a Kallikrein percentage inhibition in the assay on Kallikrein of 21%.
Regarding `CC(=O)Oc1ccc(C(=O)Oc2ccc3cc(C(=N)N)ccc3c2)cc1` [Compound 13], the IC50 on Trypsin worked out at 400 nM; on Plasmin it was 2000 nM; on C1r, 300 nM; at C1s (setting [2]), 300 nM. At Thrombin, the inhibition at 10 µM was determined as 39%. Also, the “Inhibition … (%)” value in assay [1] (1 × 10^-4) amounted to 94%; in assay [1] (1 × 10^-5), 42%; in assay [1] (1 × 10^-6), 5%; in assay [1] (1 × 10^-7), 4%. This compound yielded a Kallikrein percentage inhibition with Kallikrein of 24%.
Regarding `N=C(N)c1ccc2cc(OC(=O)c3ccc(F)cc3)ccc2c1` [Compound 15], the IC50 on Trypsin amounted to 3000 nM; on Plasmin it was 1000 nM; on Thrombin, 2 µM; against C1s, 300 nM. Besides, the “Inhibition … (%)” value came to 98% in assay [1] (1 × 10^-4), 89% in assay [1] (1 × 10^-5), 23% in assay [1] (1 × 10^-6) and 2% in assay [1] (1 × 10^-7). The compound also returned a Kallikrein percentage inhibition in the assay with Kallikrein of 38%.
In the case of `N=C(N)c1ccc2cc(OC(=O)c3ccc(Cl)cc3)ccc2c1` [Compound 16], the IC50 amounted to 3000 nM on Trypsin, 500 nM on Plasmin and 400 nM at C1s (setting [2]). In addition, the inhibition at 10 µM came out at 38% at Thrombin and 39% on C1r (at 1×10^-5 M, read-out: Anti-C1 activity, C1r percent inhibition). Besides, the “Inhibition … (%)” value was found to be 99% in assay [1] (1 × 10^-4), 77% in assay [1] (1 × 10^-5), 24% in assay [1] (1 × 10^-6) and 10% in assay [1] (1 × 10^-7). Besides, in the assay with Kallikrein, the Kallikrein percentage inhibition was determined as 31%.
In the case of `N=C(N)c1ccc2cc(OC(=O)c3ccc(Br)cc3)ccc2c1` [Compound 17], the IC50 at Trypsin stood at 4000 nM; on Plasmin it was 2000 nM; at C1r, 700 nM; on C1s (setting [2]) it was 500 nM. In addition, the “Inhibition … (%)” value in assay [1] (1 × 10^-4) is on record as 98%; in assay [1] (1 × 10^-5), 72%; in assay [1] (1 × 10^-6) it was 9%; in assay [1] (1 × 10^-7) it was 0%. For the same compound, the Kallikrein percentage inhibition with Kallikrein was 23%.
With `N#Cc1ccc(C(=O)Oc2ccc3cc(C(=N)N)ccc3c2)cc1` [Compound 19], the inhibition at 10 µM at Trypsin (at 1×10^-5 M, read-out: Trypsin percentage inhibition) was 47%. Further, the IC50 worked out at 3000 nM on Plasmin, 2 µM on Thrombin, 4000 nM at C1r and 8000 nM on C1s (setting [2]). The “Inhibition … (%)” value in assay [1] (1 × 10^-4) was 98%; in assay [1] (1 × 10^-5) it was 86%; in assay [1] (1 × 10^-6), 22%; in assay [1] (1 × 10^-7) it was 1%. This compound also registered a Kallikrein percentage inhibition in the assay on Kallikrein of 11%.
Regarding `N=C(N)c1ccc2cc(OC(=O)c3ccc(S(N)(=O)=O)cc3)ccc2c1` [Compound 29], the IC50 was 10000 nM at Trypsin, 2000 nM at Plasmin and 2 µM on Thrombin. Further, the Kallikrein percentage inhibition in the assay with Kallikrein was determined as 42%.
On to `COc1ccc(CCC(=O)Oc2ccc3cc(C(=N)N)ccc3c2)cc1OC` [Compound 49], for which the figures for the IC50 at Trypsin and at Plasmin were 2000 nM and 4000 nM, respectively. For the same compound, the inhibition at 10 µM at Thrombin was found to be 17%. Moreover, the Kallikrein percentage inhibition in the assay with Kallikrein was 29%.

One may read the inhibition as the change of the read-out against control, counted positive when it falls.

The record behind these values is patent US4532255A, “Amidine compounds and anticomplement agent comprising same” (Torii & Co., Ltd., priority 1980, dated 1985).
